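In this assay, cells in 96-well plates receive the compound at five concentrations for 48 hours. Endpoints are linearly interpolated between the surrounding concentrations. GI50 = concentration required for 50% inhibition of growth.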 Active and inactive are the calls of the source. Rule as the data show it: active = GI50 up to about 1.1 µM and inactive = higher.
Tests used:
Test in all cases: NCI-60 cell line screen, 48 h
HOP-18 = tested on: HOP-18
NCI/ADR-RES = tested on: NCI/ADR-RES
DLD-1 = tested on: DLD-1
OVCAR-5 = tested on: OVCAR-5
Malme-3M = tested on: Malme-3M
DMS-273 = tested on: DMS-273
A498 = tested on: A498
RPMI-8226 = tested on: RPMI-8226
SNB-78 = tested on: SNB-78
MCF7 = tested on: MCF7
DMS-114 = tested on: DMS-114
XF498 = tested on: XF498
KM-20L2 = tested on: KM-20L2
M19-MEL = tested on: M19-MEL
SR = tested on: SR
LXFL 529 = tested on: LXFL 529
M14 = tested on: M14
ACHN = tested on: ACHN
TK-10 = tested on: TK-10
PC-3 = tested on: PC-3

Row | SMILES | GI50 (HOP-18) | GI50 (NCI/ADR-RES) | GI50 (DLD-1) | GI50 (OVCAR-5) | GI50 (Malme-3M) | GI50 (DMS-273) | GI50 (A498) | GI50 (RPMI-8226) | GI50 (SNB-78) | GI50 (MCF7) | GI50 (DMS-114) | GI50 (XF498) | GI50 (KM-20L2) | GI50 (M19-MEL) | GI50 (SR) | GI50 (LXFL 529) | GI50 (M14) | GI50 (ACHN) | GI50 (TK-10) | GI50 (PC-3)
1 | CCCCCCCCCOCC(COP(=O)([O-])OCC[N+](C)(C)C)OC (stereo unspecified) | > 100 µM (inactive) | > 100 µM (inactive) | > 100 µM (inactive) | > 100 µM (inactive) | > 100 µM (inactive) | > 100 µM (inactive) | > 100 µM (inactive) | > 100 µM (inactive) | > 100 µM (inactive) | 68.7 µM (inactive) | > 100 µM (inactive) | > 100 µM (inactive) | > 100 µM (inactive) | > 100 µM (inactive) | – | – | – | – | – | –
2 | Cc1ccc2c(=O)c3ccccc3sc2c1 | 6.19 µM (inactive) | – | > 100 µM (inactive) | > 100 µM (inactive) | > 100 µM (inactive) | > 100 µM (inactive) | – | > 100 µM (inactive) | – | – | – | – | > 100 µM (inactive) | > 100 µM (inactive) | 79.4 µM (inactive) | > 100 µM (inactive) | > 100 µM (inactive) | > 100 µM (inactive) | > 100 µM (inactive) | –
3 | NS(=O)(=O)C1CCCCC1C(=O)NNC(=O)C(=O)Nc1nnc(S)[nH]1 (stereo unspecified) | – | – | > 100 µM (inactive) | > 100 µM (inactive) | – | > 100 µM (inactive) | > 100 µM (inactive) | > 100 µM (inactive) | > 100 µM (inactive) | – | > 100 µM (inactive) | > 100 µM (inactive) | > 100 µM (inactive) | > 100 µM (inactive) | > 100 µM (inactive) | > 100 µM (inactive) | > 100 µM (inactive) | > 100 µM (inactive) | > 100 µM (inactive) | –
4 | CO/N=C1/c2sccc2[C@H](NC(=O)C(F)(F)F)[C@@H]1O | – | > 100 µM (inactive) | – | > 100 µM (inactive) | > 100 µM (inactive) | – | > 100 µM (inactive) | – | – | > 100 µM (inactive) | – | – | – | – | > 100 µM (inactive) | – | > 100 µM (inactive) | – | > 100 µM (inactive) | > 100 µM (inactive)
5 | O=C(N/N=C\c1cccc2ccccc12)Nc1ccccc1 | – | > 100 µM (inactive) | – | > 100 µM (inactive) | > 100 µM (inactive) | – | > 100 µM (inactive) | > 100 µM (inactive) | – | > 100 µM (inactive) | – | – | – | – | > 100 µM (inactive) | – | > 100 µM (inactive) | – | > 100 µM (inactive) | > 100 µM (inactive)
6 | CCOC(=O)NC(=O)c1cn(CCN(CCO)C(=O)NCCCCCCNC(=O)N(CCO)CCn2cc(C(=O)NC(=O)OCC)c(=O)[nH]c2=O)c(=O)[nH]c1=O | > 100 µM (inactive) | > 100 µM (inactive) | > 100 µM (inactive) | > 100 µM (inactive) | > 100 µM (inactive) | > 100 µM (inactive) | > 100 µM (inactive) | > 100 µM (inactive) | > 100 µM (inactive) | > 100 µM (inactive) | > 100 µM (inactive) | > 100 µM (inactive) | > 100 µM (inactive) | > 100 µM (inactive) | – | – | – | – | – | –
7 | CCCCCCc1ccc(O)cc1O [HEXYLRESORCINOL] | 28.2 µM (inactive) | 38.4 µM (inactive) | 72.6 µM (inactive) | > 65.6 µM (inactive) | 48 µM (inactive) | > 72.6 µM (inactive) | > 100 µM (inactive) | 32.1 µM (inactive) | > 72.8 µM (inactive) | 81.1 µM (inactive) | – | > 65.3 µM (inactive) | > 100 µM (inactive) | 42.8 µM (inactive) | – | – | – | – | – | –
8 | COc1ccc(-c2c3ccccc3c(-c3ccc(OCCCCCBr)cc3)c3ccccc23)cc1 | – | – | > 100 µM (inactive) | > 100 µM (inactive) | > 100 µM (inactive) | > 100 µM (inactive) | – | > 100 µM (inactive) | – | – | > 100 µM (inactive) | – | > 100 µM (inactive) | > 100 µM (inactive) | > 100 µM (inactive) | > 100 µM (inactive) | > 100 µM (inactive) | > 100 µM (inactive) | > 100 µM (inactive) | –
9 | CC(=O)CC(=O)CCC(=O)O [SUCCINYLACETONE] | > 100 µM (inactive) | – | > 100 µM (inactive) | > 100 µM (inactive) | > 100 µM (inactive) | > 100 µM (inactive) | – | – | > 100 µM (inactive) | – | > 100 µM (inactive) | > 100 µM (inactive) | > 100 µM (inactive) | > 100 µM (inactive) | > 100 µM (inactive) | – | > 100 µM (inactive) | > 100 µM (inactive) | > 100 µM (inactive) | –
10 | O=[PH](O)c1cccs1 | > 100 µM (inactive) | – | > 100 µM (inactive) | – | – | > 100 µM (inactive) | > 100 µM (inactive) | > 100 µM (inactive) | – | – | > 100 µM (inactive) | > 100 µM (inactive) | > 100 µM (inactive) | > 100 µM (inactive) | – | > 100 µM (inactive) | > 100 µM (inactive) | > 100 µM (inactive) | > 100 µM (inactive) | –
11 | CCCCCCCCCCCCCCCC(=O)OC1C(O)C(CO)OC(OC)C1NC(=O)N(CCCl)N=O (stereo unspecified) | 15.8 µM (inactive) | – | 16.2 µM (inactive) | 16.5 µM (inactive) | – | 13.1 µM (inactive) | – | 21.1 µM (inactive) | 19.5 µM (inactive) | – | 12.1 µM (inactive) | 14.6 µM (inactive) | 17.9 µM (inactive) | 15.9 µM (inactive) | 4.46 µM (inactive) | 12.6 µM (inactive) | 18.4 µM (inactive) | 8.81 µM (inactive) | 15.5 µM (inactive) | –
12 | CC(=O)Nc1ccc2[nH]c(C(=O)N3CC(CCl)c4c3cc(N)c3ccccc43)cc2c1 (stereo unspecified) | – | 0.0182 µM (active) | – | < 0.0179 µM (active) | < 0.01 µM (active) | – | 0.0176 µM (active) | < 0.0171 µM (active) | – | 0.0107 µM (active) | – | – | – | – | < 0.01 µM (active) | – | 0.0167 µM (active) | < 0.01 µM (active) | < 0.0157 µM (active) | < 0.016 µM (active)
13 | COc1ccc(N2CN(C)CSC2=S)cc1 | – | > 100 µM (inactive) | – | 71.9 µM (inactive) | > 100 µM (inactive) | – | > 100 µM (inactive) | 32.3 µM (inactive) | – | 89.7 µM (inactive) | – | – | – | – | – | – | 38.5 µM (inactive) | > 100 µM (inactive) | > 100 µM (inactive) | > 100 µM (inactive)
14 | O=C1CCC(c2ccc(Cl)cc2)=NN1c1nsc2ccccc12 | 18.7 µM (inactive) | – | – | 51.2 µM (inactive) | – | 25.6 µM (inactive) | – | 19.3 µM (inactive) | 25.4 µM (inactive) | – | 27.9 µM (inactive) | – | 35.2 µM (inactive) | 37.2 µM (inactive) | 22.3 µM (inactive) | 26.8 µM (inactive) | > 10 µM (inactive) | 34.1 µM (inactive) | 46.3 µM (inactive) | –
15 | O=C1CNC(=O)N1 [HYDANTOIN] | > 1120 µM (inactive) | > 1120 µM (inactive) | > 1120 µM (inactive) | > 1120 µM (inactive) | > 1120 µM (inactive) | > 1120 µM (inactive) | > 1120 µM (inactive) | > 1120 µM (inactive) | > 1120 µM (inactive) | > 1120 µM (inactive) | > 1120 µM (inactive) | > 11.2 µM (inactive) | > 1120 µM (inactive) | > 1120 µM (inactive) | – | – | – | – | – | –

From ChEMBL document CHEMBL1201862, “PubChem BioAssay data set” (2004)
